Several values for one entry are separate records, joined by “and”; a condition that tells them apart may be missing. Equal entries are not always repeated. Where two headings read alike, the source gives them in different places.
How the values were obtained:
MAO-B vs MAO-A = test: Selectivity index of ChEMBl reference structures (MAO-A and MAO-B IC50); format: biochemical, human; settings: for Selectivity: selectivity index calculated from ChEMBl IC50 values of MAO-A and MAO-B
Monoamine oxidase B = target: T1, Monoamine oxidase B (Homo sapiens, UniProt P27338); settings: cited from earlier work
T1 sequence (P27338 2-520): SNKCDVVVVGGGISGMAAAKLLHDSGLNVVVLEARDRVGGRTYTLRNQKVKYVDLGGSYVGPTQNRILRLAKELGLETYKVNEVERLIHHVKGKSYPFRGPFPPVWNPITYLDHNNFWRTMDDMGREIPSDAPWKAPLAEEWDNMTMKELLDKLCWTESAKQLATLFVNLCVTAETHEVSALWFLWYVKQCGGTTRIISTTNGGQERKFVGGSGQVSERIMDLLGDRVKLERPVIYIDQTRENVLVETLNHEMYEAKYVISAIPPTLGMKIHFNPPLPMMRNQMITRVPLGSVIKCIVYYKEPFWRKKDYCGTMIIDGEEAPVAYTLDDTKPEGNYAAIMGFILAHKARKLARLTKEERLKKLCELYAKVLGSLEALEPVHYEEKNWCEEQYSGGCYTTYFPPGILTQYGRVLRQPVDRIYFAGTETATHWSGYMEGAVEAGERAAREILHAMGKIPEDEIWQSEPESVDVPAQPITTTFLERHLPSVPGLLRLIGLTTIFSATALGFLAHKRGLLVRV

Monoamine oxidase A = target: T2, Monoamine oxidase A (Homo sapiens, UniProt P21397); settings: cited from earlier work
T2 sequence (P21397 1-527): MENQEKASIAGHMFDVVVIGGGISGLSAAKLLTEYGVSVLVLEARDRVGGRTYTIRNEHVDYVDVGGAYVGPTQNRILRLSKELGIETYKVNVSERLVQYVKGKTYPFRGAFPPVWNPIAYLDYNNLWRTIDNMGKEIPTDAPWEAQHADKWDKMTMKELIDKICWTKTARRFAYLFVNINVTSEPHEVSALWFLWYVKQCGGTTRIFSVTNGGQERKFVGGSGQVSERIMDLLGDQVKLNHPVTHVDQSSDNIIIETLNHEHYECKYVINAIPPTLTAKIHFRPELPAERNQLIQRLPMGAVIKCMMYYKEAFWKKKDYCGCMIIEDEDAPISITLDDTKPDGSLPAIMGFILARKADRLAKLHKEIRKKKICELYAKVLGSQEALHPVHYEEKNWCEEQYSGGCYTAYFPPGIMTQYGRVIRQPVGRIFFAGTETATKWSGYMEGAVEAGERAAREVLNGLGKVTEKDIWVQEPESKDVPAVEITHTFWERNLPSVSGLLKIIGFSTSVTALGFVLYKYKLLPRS

[1] = design: method as in literature (reference not given); settings: ref literature (reference not given); cited from earlier work
[2] = PAMPA-BBB parallel artificial membrane permeability assay; settings: for Papp at 4 h, 100 µM: PAMPA; for Experimental log Pe value / Membrane retention: PAMPA-BBB, pH 7.4, 37°C, 4 hours, n=9, ± SD; for Experimental log Pe value: Pe in cm/s
[3] = Octanol/water partitioning, shake-flask method (log P, log D^pH); settings: n-octanol/Britton-Robinson buffer
MAO-B = settings: cited from earlier work; for MAO-B selectivity index: MAO-B over MAO-A; for IC50: in vitro
[4] = PAMPA, pH 7.4

c1ccc2c(c1)OCC(C1=NCCN1)O2 (stereo not shown) [CHEMBL10316, IDAZOXAN]
Selectivity index (MAO-B vs MAO-A; MAO-A IC50 / MAO-B IC50 of ChEMBL reference structures): 1
pChEMBL Value, Type B (Monoamine oxidase B; MAO-B, ref ChEMBL database): 6
IC50 (Monoamine oxidase B; MAO-B, ref ChEMBL database, read-out: Standard Value (IC50), Type B): 1000 nM
pChEMBL Value, MAO B (Monoamine oxidase B; human enzyme, lines marked B, ref ChEMBl database): 6
IC50 (Monoamine oxidase B; human enzyme, lines marked B, ref ChEMBl database, read-out: Standard Value (IC50), MAO B): 1000 nM
pChEMBL Value, Type A (Monoamine oxidase A; MAO-A, ref ChEMBL database): 6
pChEMBL Value, MAO A (Monoamine oxidase A; human enzyme, ref ChEMBl database): 6
IC50 (Monoamine oxidase A; read-out: Standard Value (IC50), MAO A, human enzyme, ref ChEMBl database): 1000 nM
IC50 (Monoamine oxidase A; read-out: Standard Value (IC50), Type A, MAO-A, ref ChEMBL database): 1000 nM

COc1ccc(C2CC(c3ccc(O)cc3)=NN2C(C)=O)cc1 (stereo not shown) [CHEMBL65761]
Selectivity (MAO-B vs MAO-A): 0.00125

O=C1/C(=C/c2ccc(O)cc2)COc2cc(O)cc(O)c21 [CHEMBL1077616]
IC50 (Monoamine oxidase B; human enzyme, closest reference structures, ref ChEMBl database, read-out: IC50 values (MAO-B)): 8710 nM

O=C1/C(=C/c2ccc(O)c(O)c2)COc2ccccc21 [CHEMBL1766558]
Selectivity (MAO-B vs MAO-A): 33.7319 and 33.73

O=C(Nc1ccc(O)c(O)c1)c1cc(=O)c2ccccc2o1 [CHEMBL1814057]
Selectivity (MAO-B vs MAO-A): 0.07

O=C(Nc1ccc(O)cc1)c1coc2ccccc2c1=O [CHEMBL1814064]
Selectivity (MAO-B vs MAO-A): 74.375 and 74.38

O=C(Nc1ccc(O)c(O)c1)c1coc2ccccc2c1=O [CHEMBL1814066]
Selectivity (MAO-B vs MAO-A): 2.69

O=C1/C(=C/c2ccc(N3CCOCC3)cc2)Oc2cc(O)cc(O)c21 [CHEMBL1814450]
Selectivity (MAO-B vs MAO-A): 3.176

O=c1c2ccccc2sc2cc(O)cc(O)c12 [CHEMBL2018439, 1,3-Dihydroxythioxanthone]
Selectivity (MAO-B vs MAO-A): 0.9333

CN(C)c1ccc(/C=C2\Oc3cc(O)cc(O)c3C2=O)cc1 [CHEMBL2288402]
Selectivity (MAO-B vs MAO-A): 0.04 and 0.03923

O=C1/C(=C/c2ccc(N3CCCC3)cc2)Oc2cc(O)cc(O)c21 [CHEMBL3786282]
Selectivity (MAO-B vs MAO-A): 1.1688

CCN(CC)c1ccc(/C=C2\Oc3cc(O)cc(O)c3C2=O)cc1 [CHEMBL3786747]
Selectivity (MAO-B vs MAO-A): 0.3443

CCN(C)c1ccc(/C=C2\Oc3cc(O)cc(O)c3C2=O)cc1 [CHEMBL3786785]
Selectivity (MAO-B vs MAO-A): 0.03453

O=C1/C(=C/c2ccc(O)cc2)Cc2cc(O)ccc21 [CHEMBL3890408]
Selectivity (MAO-B vs MAO-A): 0.6095 and 0.61

O=C1/C(=C/c2cccc(O)c2)Cc2cc(O)ccc21 [CHEMBL3891485]
Selectivity (MAO-B vs MAO-A): 1.242 and 1.24

N#Cc1ccc(/C=C2\Cc3cc(O)ccc3C2=O)cc1 [CHEMBL3900500]
Selectivity (MAO-B vs MAO-A): 6.582

O=C1/C(=C/c2ccc(Cl)cc2)Cc2cc(O)ccc21 [CHEMBL3907033]
Selectivity (MAO-B vs MAO-A): 57

COc1cccc(/C=C2\Cc3cc(O)ccc3C2=O)c1 [CHEMBL3918471]
Selectivity (MAO-B vs MAO-A): 2.527

O=C1/C(=C/c2cccc(Cl)c2)Cc2cc(O)ccc21 [CHEMBL3924440]
Selectivity (MAO-B vs MAO-A): 5.233

O=C1/C(=C/c2ccc(F)cc2)Cc2cc(O)ccc21 [CHEMBL3933900]
Selectivity (MAO-B vs MAO-A): 14.4468

O=C1/C(=C/c2ccc(Br)cc2)Cc2cc(O)ccc21 [CHEMBL3950873]
Selectivity (MAO-B vs MAO-A): 198.113

O=C1/C(=C/c2cccc(F)c2)Cc2cc(O)ccc21 [CHEMBL3965044]
Selectivity (MAO-B vs MAO-A): 5.452

N#Cc1cccc(/C=C2\Cc3cc(O)ccc3C2=O)c1 [CHEMBL3971638]
Selectivity (MAO-B vs MAO-A): 3.415

O=C1/C(=C/c2cccc(Br)c2)Cc2cc(O)ccc21 [CHEMBL3979091]
Selectivity (MAO-B vs MAO-A): 10.0769

Cc1ccc2occ(/C=N/c3cc(Cl)ccc3O)c(=O)c2c1 [CHEMBL4073506]
Selectivity (MAO-B vs MAO-A): 3.391

O=c1c(/C=N/c2cc(F)ccc2O)coc2ccccc12 [CHEMBL4082043]
Selectivity (MAO-B vs MAO-A): 2.612

Cc1ccc(O)c(/N=C/c2coc3ccc(C)cc3c2=O)c1 [CHEMBL4082612]
Selectivity (MAO-B vs MAO-A): 6.275

O=c1c(/C=N/c2ccc(Cl)cc2O)coc2ccccc12 [CHEMBL4086270]
Selectivity (MAO-B vs MAO-A): 0.7978

Cc1ccc2occ(/C=N/c3cc(F)ccc3O)c(=O)c2c1 [CHEMBL4090445]
Selectivity (MAO-B vs MAO-A): 1.637

Cc1ccc2occ(/C=N/c3ccc(Cl)cc3O)c(=O)c2c1 [CHEMBL4099570]
Selectivity (MAO-B vs MAO-A): 2.863

Cc1ccc(O)c(/N=C/c2coc3ccccc3c2=O)c1 [CHEMBL4100473]
Selectivity (MAO-B vs MAO-A): 2.956

Cn1c(=O)c2c(ncn2C)n(C)c1=O [Caffeine]
log BB literature value [1]: 0.01
Papp at 4 h, 100 µM [2]: 3.24 ×10⁻⁶ cm/s

COc1cc(-c2coc3cc(O)ccc3c2=O)ccc1O [Calycosin D]
logD at 1 h ([3]; pH 5): 2.48 ± 0.02
logP at 1 h ([3]; pH 5): 2.48
logD at 1 h ([3]; pH 7.4): 2.21 ± 0.04
Papp at 4 h, 100 µM ([2]; pH 7.4): 2.5 ×10⁻⁶ cm/s
Experimental log Pe value [2]: -5.60 and -5.60 ± 0.07
Membrane retention [2]: 16.49% and 16.49 ± 1.38%
BBB category from Pe ([2]; categorization of Di et al.): uncertain
BBB category from log Pe ([2]; cut-off of Könczöl et al.): well-permeating
BBB category from log Pe ([2]; cut-off of Mensch et al.): BBB-

COc1ccc(-c2coc3cc(O)ccc3c2=O)cc1O [Calycosin]
MAO-B selectivity index (MAO-B): 293.8
IC50 (MAO-B): 240 nM

COc1ccc(-c2coc3cc(O)ccc3c2=O)cc1 [Formononetin]
logD at 1 h ([3]; pH 5): 2.83 ± 0.05
logP at 1 h ([3]; pH 5): 2.83
logD at 1 h ([3]; pH 7.4): 2.73 ± 0.07
Papp at 4 h, 100 µM ([2]; pH 7.4): 10 ×10⁻⁶ cm/s
Experimental log Pe value [2]: -5.00 ± 0.11
Membrane retention [2]: 27.25% and 27.25 ± 6.43%

Oc1ccc2c(c1)OC[C@H]1c3cc4c(cc3O[C@@H]21)OCO4 [Maackiain]
MAO-B selectivity index (MAO-B): 126.2
Type of MAO-B inhibition (MAO-B): reversible
IC50 (MAO-B): 680 nM
Experimental log Pe value ([4]; 4 h, 100 µM): -4.48
Experimental log Pe value [4]: -4.48 ± 0.08
Measured log D^7.4 ± SE ([3]; pH 7.4, 25°C): 2.49 ± 0.02
Experimental log P ([3]; unionized form (pH 5 for isoflavones and isoflavanones)): 2.49

COc1ccc2c(c1)O[C@H]1c3ccc(O)cc3OC[C@@H]21 [Medicarpin]
IC50 (MAO-B): 300 nM
Experimental log Pe value ([4]; 4 h, 100 µM): -4.45
Experimental log Pe value [4]: -4.45 ± 0.04
Experimental log P (pH 5): 3.03
Measured log D^7.4 ± SE (pH 7.4): 3.03 ± 0.02

COc1cc2c(cc1C1COc3cc(O)ccc3C1=O)OCO2 (stereo not shown) [Onogenin]
logD at 1 h ([3]; pH 5): 3.03 ± 0.02
logP at 1 h ([3]; pH 5): 3.03
logD at 1 h ([3]; pH 7.4): 2.49 ± 0.04
Papp at 4 h, 100 µM ([2]; pH 7.4): 18.6 ×10⁻⁶ cm/s
Experimental log Pe value [2]: -4.73 ± 0.04
Membrane retention [2]: 32.51% and 31.51 ± 4.04%

C=C[C@H]1C[N@@]2CC[C@H]1C[C@H]2[C@H](O)c1ccnc2ccc(OC)cc12 [Quinine]
log BB literature value [1]: 0.60
Papp at 4 h, 100 µM [2]: 15.5 ×10⁻⁶ cm/s

C[C@@H]1O[C@@H](OC[C@H]2O[C@@H](Oc3c(-c4ccc(O)c(O)c4)oc4cc(O)cc(O)c4c3=O)[C@H](O)[C@@H](O)[C@@H]2O)[C@H](O)[C@H](O)[C@H]1O [Rutin]
log BB literature value [1]: -1.22
Papp at 4 h, 100 µM [2]: 0.00776 ×10⁻⁶ cm/s

O=C(O)c1ccccc1O [Salicylic acid]
log BB literature value [1]: -1.10
Papp at 4 h, 100 µM [2]: 0.00851 ×10⁻⁶ cm/s

COc1ccc(C2COc3cc(O)ccc3C2=O)c(OC)c1 (stereo not shown) [Sativanone]
logD at 1 h ([3]; pH 5): 3.04 ± 0.01
logP at 1 h ([3]; pH 5): 3.04
logD at 1 h ([3]; pH 7.4): 2.75 ± 0.03
Papp at 4 h, 100 µM ([2]; pH 7.4): 17.4 ×10⁻⁶ cm/s
Experimental log Pe value [2]: -4.76 ± 0.07
Membrane retention [2]: 33.66% and 33.66 ± 4.13%
